Test results: patent US20030087316A1, “Diagnostic markers of liver dysfunction” (priority 2001, published 2003)
“Also recorded” adds a separate entry of the source.

Experiments:
[1] = target: T1, C1s (Homo sapiens, UniProt P09871); assay: Peptidase (amidolytic) activity of purified C1s, chromogenic substrate, 96-well plate, OD 405 nm; type: biochemical; conditions: for % Residual activity, C1s: substrate S2288; for Inhibition of C1s, in words: text on Tables 2 and 3, concentrations as there
T1 construct: purchased Advanced Research Technologies (San Diego, Calif.)
T1 sequence (P09871 438-688 limits assumed): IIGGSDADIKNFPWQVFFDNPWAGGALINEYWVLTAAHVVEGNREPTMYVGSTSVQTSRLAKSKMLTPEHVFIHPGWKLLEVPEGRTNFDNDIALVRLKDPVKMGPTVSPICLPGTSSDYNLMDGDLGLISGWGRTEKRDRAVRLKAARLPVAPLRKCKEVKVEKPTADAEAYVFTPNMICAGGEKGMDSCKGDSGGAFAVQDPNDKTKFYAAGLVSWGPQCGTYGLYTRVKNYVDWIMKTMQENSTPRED
T1 sequence (P09871 16-437 partner limits assumed): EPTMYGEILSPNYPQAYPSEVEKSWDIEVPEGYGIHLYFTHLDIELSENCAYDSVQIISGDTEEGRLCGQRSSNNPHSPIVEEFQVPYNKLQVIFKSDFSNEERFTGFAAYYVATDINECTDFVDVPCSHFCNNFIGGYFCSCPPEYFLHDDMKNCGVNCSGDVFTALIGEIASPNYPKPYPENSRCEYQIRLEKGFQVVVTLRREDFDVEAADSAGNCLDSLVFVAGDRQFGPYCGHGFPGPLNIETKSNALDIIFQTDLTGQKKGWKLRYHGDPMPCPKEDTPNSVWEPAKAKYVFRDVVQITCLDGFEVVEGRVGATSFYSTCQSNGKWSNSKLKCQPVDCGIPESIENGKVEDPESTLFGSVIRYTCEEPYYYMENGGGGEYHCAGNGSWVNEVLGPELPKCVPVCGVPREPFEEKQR
Method: (§1) The peptidase activity in plasma samples or of the purified enzymes were routinely determined at 37° C. in a 96-well plate. Each well contained 0.5 mM substrate in 100 μl of Tris-buffered saline (TBS)-EDTA buffer (50 mM Tris/150 mM NaCl/10 mM EDTA, pH 7.8) and the reaction was monitored using a microplate reader (Titertek Multiscan, Labsystems, Needham Heights, Mass.).
(§2) The enzymes C1s (100 nM), plasm in (100 nM), thrombin (100 nM), plasma kallikrein (20 nM), β-FXIIa (100 nM), trypsin (16 nM) or LTR EDTA plasma samples were incubated for 60 min at 4° C. with TBS-EDTA buffer containing either LBTI (1 mg/ml), SBTI (I mg/ml), aprotinin (0.075 mg/ml), benzamidine (50 mM), or Futhan (0.1 mg/ml), before mixing with the substrate. EDTA plasma samples from LTR were diluted 10 or 20-fold with TBS-EDTA. The chromogenic substrate AGLTR-pNA was used for all enzymes and LTR samples except C1s where the substrate S2288 was used. Based on the initial rate of increase in OD at 405 nm, the residual free enzyme level was calculated and expressed as a percentage of total activity without inhibitor added.
(§3) Ten-fold diluted normal EDTA plasma was added to each enzyme. The enzymes C1s (100 nM), plasmin (100 nM), thrombin (100 nM), plasma kallikrein (20 nM), β-FXIIa (100 nM), trypsin (16 nM) or LTR EDTA plasma samples were incubated for 60 min at 4° C. with TBS-EDTA buffer containing either C1INH (40 μg/ml), bdellin (50 μg/ml), hirudin (50 U/ml), PPACK 11(10 μM), or CTI (100 μg/ml), before adding the substrate. LTR samples were 10 or 20-fold diluted with TBS-EDTA. The chromogenic substrate AGLTR-pNA was used for all enzymes and LTP samples except C1s where the substrate S2288 was used. Based on the initial rate of increase in OD at 405 nm, the residual free enzyme was calculated and expressed as a percentage of total activity determined without inhibitor added.

[2] = system: proteinase(s) in EDTA plasma from LTR (kallikrein-like peptidase); assay: Peptidase activity in EDTA plasma from liver transplant recipients (LTR), chromogenic substrate, OD 405 nm; type: biochemical, human; conditions: for % Residual activity, LTR 1 / % Residual activity, LTR 2 / % Residual activity, LTR 3: substrate AGLTR-pNA; for Inhibition of the LTR plasma peptidase activity, in words: text on Tables 2 and 3, concentrations as there
Method: Blood samples were drawn into 5 ml EDTA tubes (Venoject; Terumo Corp., Elkton, Md.). The plasma was collected immediately by centrifugation at 2,000×g for 15 min at 4° C. The plasma samples were either processed immediately for analysis or stored at −70° C. Frozen samples were thawed at 4° C. prior to analysis.
as §1, §2, §3

[3] = target: T2, thrombin (Homo sapiens, UniProt P00734); assay: Peptidase (amidolytic) activity of purified thrombin, chromogenic substrate, OD 405 nm; type: biochemical
T2 construct: purchased Calbiochem-Novabiochem Corp (La Jolla, Calif.)

[4] = target: T3, plasma kallikrein (Homo sapiens, UniProt P03952); assay: Peptidase (amidolytic) activity of purified plasma kallikrein, chromogenic substrate, OD 405 nm; type: biochemical; conditions: for % Residual activity, Plasma Kallikrein: substrate AGLTR-pNA; for Inhibition of purified plasma kallikrein activity, in words: text on Tables 2 and 3, concentrations as there
T3 construct: The light chain of kallikrein contains the enzymatic domain; purchased Calbiochem-Novabiochem Corp (La Jolla, Calif.)
T3 sequence (P03952 391-638 limits assumed): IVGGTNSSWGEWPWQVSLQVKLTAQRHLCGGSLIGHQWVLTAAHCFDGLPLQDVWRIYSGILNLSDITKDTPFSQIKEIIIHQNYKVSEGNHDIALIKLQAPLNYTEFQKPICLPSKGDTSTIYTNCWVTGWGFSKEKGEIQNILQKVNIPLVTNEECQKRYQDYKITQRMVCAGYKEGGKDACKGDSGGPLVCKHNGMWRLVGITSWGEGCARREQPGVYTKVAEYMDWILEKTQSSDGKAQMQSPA
T3 sequence (P03952 20-390 partner limits assumed): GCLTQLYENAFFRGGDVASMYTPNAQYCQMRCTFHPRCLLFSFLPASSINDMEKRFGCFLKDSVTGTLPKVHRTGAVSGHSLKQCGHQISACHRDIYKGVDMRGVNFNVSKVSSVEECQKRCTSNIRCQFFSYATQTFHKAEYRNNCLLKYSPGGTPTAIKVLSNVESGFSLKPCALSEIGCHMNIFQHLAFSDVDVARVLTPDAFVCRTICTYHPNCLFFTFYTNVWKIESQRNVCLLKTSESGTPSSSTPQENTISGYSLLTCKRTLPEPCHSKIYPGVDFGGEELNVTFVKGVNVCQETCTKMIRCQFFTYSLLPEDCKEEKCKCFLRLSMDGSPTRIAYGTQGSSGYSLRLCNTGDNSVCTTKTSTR
Method: as §1
(§4) […] EDTA plasma samples from LTR were diluted 10 or 20-fold with TBS-EDTA. The chromogenic substrate AGLTR-pNA was used for all enzymes and LTR samples except C1s where the substrate S2288 was used. Based on the initial rate of increase in OD at 405 nm, the residual free enzyme level was calculated and expressed as a percentage of total activity without inhibitor added.
(§5) Ten-fold diluted normal EDTA plasma was added to each enzyme. […] LTR samples were 10 or 20-fold diluted with TBS-EDTA. The chromogenic substrate AGLTR-pNA was used for all enzymes and LTP samples except C1s where the substrate S2288 was used. Based on the initial rate of increase in OD at 405 nm, the residual free enzyme was calculated and expressed as a percentage of total activity determined without inhibitor added.

[5] = target: T4, plasmin (Homo sapiens, UniProt P00747); assay: Peptidase (amidolytic) activity of purified plasmin, chromogenic substrate, OD 405 nm; type: biochemical; conditions: for % Residual activity, Plasmin: substrate AGLTR-pNA
T4 construct: purchased Calbiochem-Novabiochem Corp (La Jolla, Calif.)
T4 sequence (P00747 581-810 limits assumed, species assumed): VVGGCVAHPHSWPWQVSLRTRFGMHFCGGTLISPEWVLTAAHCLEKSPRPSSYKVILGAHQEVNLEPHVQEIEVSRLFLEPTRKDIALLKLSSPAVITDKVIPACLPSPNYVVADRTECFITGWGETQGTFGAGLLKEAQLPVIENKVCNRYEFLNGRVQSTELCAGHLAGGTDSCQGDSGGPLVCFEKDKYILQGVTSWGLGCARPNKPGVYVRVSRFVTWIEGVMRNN
T4 sequence (P00747 97-580 partner limits assumed, species assumed): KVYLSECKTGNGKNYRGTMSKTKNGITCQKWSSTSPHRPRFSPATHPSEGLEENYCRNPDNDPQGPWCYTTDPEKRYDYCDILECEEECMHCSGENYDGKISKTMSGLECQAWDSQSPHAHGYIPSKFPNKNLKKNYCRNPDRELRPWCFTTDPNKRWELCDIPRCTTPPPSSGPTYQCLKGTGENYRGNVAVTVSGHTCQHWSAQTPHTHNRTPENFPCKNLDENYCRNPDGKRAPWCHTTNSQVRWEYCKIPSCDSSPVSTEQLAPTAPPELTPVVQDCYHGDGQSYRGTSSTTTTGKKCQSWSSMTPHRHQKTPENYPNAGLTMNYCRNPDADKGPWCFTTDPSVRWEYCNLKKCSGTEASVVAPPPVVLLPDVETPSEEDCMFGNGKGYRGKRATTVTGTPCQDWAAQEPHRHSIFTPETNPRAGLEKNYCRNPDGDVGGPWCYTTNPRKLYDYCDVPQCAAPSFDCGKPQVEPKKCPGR
Method: as §1, §2, §3

[6] = target: T5, β-Factor XIIa (β-FXIIa) (Homo sapiens, UniProt P00748); assay: Peptidase (amidolytic) activity of purified β-FXIIa, chromogenic substrate, OD 405 nm; type: biochemical; conditions: substrate AGLTR-pNA
T5 construct: β-Factor XIIa (β-FXIIa) was kindly provided by Dr. Mary J. Heeb; gift of Dr. Mary J. Heeb, The Scripps Research Institute
T5 sequence (P00748 373-615 limits assumed, other chains not shown): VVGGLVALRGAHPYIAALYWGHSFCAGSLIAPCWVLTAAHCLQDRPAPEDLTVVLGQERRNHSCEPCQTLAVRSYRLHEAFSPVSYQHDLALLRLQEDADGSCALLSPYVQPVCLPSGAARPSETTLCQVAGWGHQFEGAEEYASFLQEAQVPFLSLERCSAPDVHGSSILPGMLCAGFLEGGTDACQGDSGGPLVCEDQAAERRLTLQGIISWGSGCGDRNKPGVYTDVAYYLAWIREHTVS
Method: as §1, §4, §5

[7] = system: trypsin; assay: Peptidase (amidolytic) activity of purified trypsin, chromogenic substrate, OD 405 nm; type: biochemical; conditions: Table 2
Method: as §1, §2

[8] = Table 3, C1s 100 nM with ten-fold diluted normal EDTA plasma added, 60 min at 4° C. with C1INH 40 μg/ml or PPACK 11 10 μM
[9] = Table 3, LTR 1 EDTA plasma 10 or 20-fold diluted, 60 min at 4° C. with C1INH 40 μg/ml, bdellin 50 μg/ml, hirudin 50 U/ml, PPACK 11 10 μM or CTI 100 μg/ml
[10] = Table 3, LTR 2 EDTA plasma 10 or 20-fold diluted, 60 min at 4° C. with C1INH 40 μg/ml, bdellin 50 μg/ml, hirudin 50 U/ml, PPACK 11 10 μM or CTI 100 μg/ml
[11] = Table 3, LTR 3 EDTA plasma 10 or 20-fold diluted, 60 min at 4° C. with C1INH 40 μg/ml, bdellin 50 μg/ml, hirudin 50 U/ml, PPACK 11 10 μM or CTI 100 μg/ml
[12] = Table 3, thrombin 100 nM with ten-fold diluted normal EDTA plasma added, substrate AGLTR-pNA, 60 min at 4° C. with hirudin 50 U/ml or PPACK 11 10 μM
[13] = Table 3, plasma kallikrein 20 nM with ten-fold diluted normal EDTA plasma added, 60 min at 4° C. with C1INH 40 μg/ml or PPACK 11 10 μM

Row | Substance | % Residual activity, C1s [1, 8] [%] | Inhibition of C1s, in words [1] | % Residual activity, LTR 1 [2, 9] [%] | % Residual activity, LTR 2 [2, 10] [%] | % Residual activity, LTR 3 [2, 11] [%] | Inhibition of the LTR plasma peptidase activity, in words [2] | % Residual activity, Thrombin [3, 12] [%] | % Residual activity, Plasma Kallikrein [4, 13] [%] | Inhibition of purified plasma kallikrein activity, in words [4] | further results
1 | D-Phe-Phe-Arg-chloromethylketone [PPACK II] | 82.2 | failed to inhibit C1s | −0.2 | 0.6 | 2.7 | totally inhibited; also recorded: substantially inhibited | 0.7 | 0.0 | totally inhibited | % Residual activity, Plasmin ([5]; Table 3, plasmin 100 nM with ten-fold diluted normal EDTA plasma added, 60 min at 4° C. with bdellin 50 μg/ml or PPACK 11 10 μM): 9.2%; % Residual activity, β-FXIIa ([6]; Table 3, β-FXIIa 100 nM with ten-fold diluted normal EDTA plasma added, 60 min at 4° C. with PPACK 11 10 μM or CTI 100 μg/ml): 8.4%
2 | aprotinin |  | but not C1s |  |  |  | only partially effective |  |  | efficiently inhibited | % Residual activity, C1s ([1]; Table 2, C1s 100 nM, 60 min at 4° C. with LBTI 1 mg/ml, SBTI I mg/ml, aprotinin 0.075 mg/ml, benzamidine 50 mM or Futhan 0.1 mg/ml, % of total activity without inhibitor): 104.8%; Inhibition of trypsin amidolytic activity, in words ([7]; concentrations as there): efficiently inhibited; % Residual activity, Trypsin ([7]; trypsin 16 nM, substrate AGLTR-pNA, 60 min at 4° C. with LBTI 1 mg/ml, SBTI I mg/ml, aprotinin 0.075 mg/ml, benzamidine 50 mM or Futhan 0.1 mg/ml): 4.8%; % Residual activity, LTR 1 ([2]; Table 2, LTR 1 EDTA plasma diluted 10 or 20-fold, 60 min at 4° C. with LBTI 1 mg/ml, SBTI I mg/ml, aprotinin 0.075 mg/ml, benzamidine 50 mM or Futhan 0.1 mg/ml): 35.3%; % Residual activity, LTR 2 ([2]; Table 2, LTR 2 EDTA plasma diluted 10 or 20-fold, 60 min at 4° C. with LBTI 1 mg/ml, SBTI I mg/ml, aprotinin 0.075 mg/ml, benzamidine 50 mM or Futhan 0.1 mg/ml): 40.2%; % Residual activity, LTR 3 ([2]; Table 2, LTR 3 EDTA plasma diluted 10 or 20-fold, 60 min at 4° C. with LBTI 1 mg/ml, SBTI I mg/ml, aprotinin 0.075 mg/ml, benzamidine 50 mM or Futhan 0.1 mg/ml): 21.4%; % Residual activity, Thrombin ([3]; Table 2, thrombin 100 nM, substrate AGLTR-pNA, 60 min at 4° C. with LBTI 1 mg/ml, SBTI I mg/ml, aprotinin 0.075 mg/ml, benzamidine 50 mM or Futhan 0.1 mg/ml): 84.6%; % Residual activity, Plasma Kallikrein ([4]; Table 2, plasma kallikrein 20 nM, 60 min at 4° C. with LBTI 1 mg/ml, SBTI I mg/ml, aprotinin 0.075 mg/ml, benzamidine 50 mM or Futhan 0.1 mg/ml): 3.5%; Inhibition of plasmin amidolytic activity, in words ([5]; Table 2, concentrations as there): efficiently inhibited; % Residual activity, Plasmin ([5]; Table 2, plasmin 100 nM, 60 min at 4° C. with LBTI 1 mg/ml, SBTI I mg/ml, aprotinin 0.075 mg/ml, benzamidine 50 mM or Futhan 0.1 mg/ml): 2.4%; % Residual activity, β-FXIIa ([6]; Table 2, β-FXIIa 100 nM, 60 min at 4° C. with LBTI 1 mg/ml, SBTI I mg/ml, aprotinin 0.075 mg/ml, benzamidine 50 mM or Futhan 0.1 mg/ml): 106.0%
3 | C1INH: human C1 esterase inhibitor, purchased from Sigma Chemical | 37.8 | only partially inhibited C1s | 81.4 | 84.0 | 41.0 | caused only partial inhibition |  | 37.0 | caused only partial inhibition | Inhibition of the LTR plasma peptidase activity, in words ([2]; listed as CINH): inhibited partially
4 | Hirudin |  |  | 100.4 | 99.5 | 104.1 | failed to reduce the plasma peptidase activity; also recorded: not inhibited | 2.6 |  |  | Inhibition of thrombin by hirudin (FIG. 8), in words ([3]; 50 U/ml hirudin, substrate AGLTR-pNA, versus time at 37° C.): effectively inhibited; Inhibition of thrombin, in words ([3]; Table 3): a very effective thrombin inhibitor
